Results from article PMC11207335, “In Vitro Metabolism and Transport Characteristics of Zastaprazan” (Pharmaceutics, 2024).

Key:
[1] = target: T1, OCT2 (Homo sapiens, UniProt O15244); experiment: Uptake into HEK293 cells expressing OCT2; conditions: for Uptake Rate / Fold-Change: 6 μM; for Substrate: OCT2; for Fold-Change: vs HEK293-mock
T1 sequence (O15244 1-555): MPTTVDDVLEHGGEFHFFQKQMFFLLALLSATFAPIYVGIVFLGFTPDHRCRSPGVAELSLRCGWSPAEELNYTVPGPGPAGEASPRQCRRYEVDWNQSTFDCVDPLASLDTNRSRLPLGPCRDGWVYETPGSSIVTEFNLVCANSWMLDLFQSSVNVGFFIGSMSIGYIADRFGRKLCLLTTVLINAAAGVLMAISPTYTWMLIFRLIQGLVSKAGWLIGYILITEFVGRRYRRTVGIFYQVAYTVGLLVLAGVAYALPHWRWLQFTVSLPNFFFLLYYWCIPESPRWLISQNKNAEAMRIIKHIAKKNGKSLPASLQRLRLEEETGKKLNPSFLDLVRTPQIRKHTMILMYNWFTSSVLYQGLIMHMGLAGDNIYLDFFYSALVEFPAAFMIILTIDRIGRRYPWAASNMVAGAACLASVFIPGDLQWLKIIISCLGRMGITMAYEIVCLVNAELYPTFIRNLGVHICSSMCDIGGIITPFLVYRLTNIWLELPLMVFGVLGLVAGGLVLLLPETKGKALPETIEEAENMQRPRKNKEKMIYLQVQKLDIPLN

[2] = target: T2, BCRP (Homo sapiens, UniProt Q9UNQ0); experiment: Permeability in LLC-PK1-BCRP cells; type: in vitro ADME; conditions: for Substrate: BCRP
T2 construct: host or cells: LLC-PK1 (porcine kidney cells)
T2 sequence (Q9UNQ0 1-655): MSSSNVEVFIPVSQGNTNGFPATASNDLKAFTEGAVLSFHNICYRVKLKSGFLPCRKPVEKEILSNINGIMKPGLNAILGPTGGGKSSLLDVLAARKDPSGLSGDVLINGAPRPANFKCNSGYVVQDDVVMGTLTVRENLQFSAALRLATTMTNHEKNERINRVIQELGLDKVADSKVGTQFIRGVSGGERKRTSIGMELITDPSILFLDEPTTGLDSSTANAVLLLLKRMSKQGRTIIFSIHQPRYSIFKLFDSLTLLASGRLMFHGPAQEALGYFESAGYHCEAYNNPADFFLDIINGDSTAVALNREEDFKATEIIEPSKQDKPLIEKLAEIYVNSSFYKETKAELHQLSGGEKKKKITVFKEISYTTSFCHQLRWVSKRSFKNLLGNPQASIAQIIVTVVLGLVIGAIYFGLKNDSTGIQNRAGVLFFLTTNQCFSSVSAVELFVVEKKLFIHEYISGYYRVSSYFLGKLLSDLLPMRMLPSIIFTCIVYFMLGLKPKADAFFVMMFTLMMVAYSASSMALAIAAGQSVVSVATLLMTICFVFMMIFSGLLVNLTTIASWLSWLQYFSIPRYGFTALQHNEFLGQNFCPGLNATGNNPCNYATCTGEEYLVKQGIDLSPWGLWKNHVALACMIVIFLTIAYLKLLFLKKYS
Description: LLC-PK1-P-gp or BCRP cells were seeded on collagen-coated 24-transwell membranes at a density of 2.5 × 10^5 cells/mL and maintained at 37 °C in a humidified atmosphere with 5% CO2/95% air for 5 days in Medium 199 supplemented with 10% […], 50 μg/mL of gentamycin, and 50 μg/mL of hygromycin. The culture medium was replaced every other day. On the day of the experiment, the growth medium was discarded, and the attached cells were washed with prewarmed HBSS (pH 7.4) and preincubated with HBSS for 20 min at 37 °C. […] Aliquots (0.1 mL) in the apical side were transferred to clean tubes every 15 min for 1 h and replaced with an equal volume of fresh HBSS.
LLC-PK1-P-gp or BCRP cells were seeded on collagen-coated 24-transwell membranes at a density of 2.5 × 10^5 cells/mL and cultured for 5 days. The growth medium was discarded on the day of the experiment, and the attached cells were washed with prewarmed HBSS (pH 7.4) and preincubated with HBSS for 20 min at 37 °C. […] Aliquots (0.1 mL) in the apical side were transferred to clean tubes every 15 min for 1 h and replaced with an equal volume of fresh HBSS. Aliquots (30 μL) of each sample were vortex-mixed with 90 μL of IS solution for 1 min, and then centrifugation was performed at 13,500 rpm at 4 °C for 5 min. Aliquots (5 μL) of the supernatant were injected into the LC-MS/MS for analysis.
The permeability (Papp) was calculated from the following equation [23, 24]: Papp(cm/s)=transport ratenmol/s/JP−1366 or M1 concentration (μM)×surface area of membrane (cm^2)

[3] = Apparent permeability in Caco-2 cells; type: in vitro ADME; conditions: human; for Papp A→B at 1 h, 4 µM / Papp B→A at 1 h, 4 µM: Caco-2, pH 7.4
Description: Caco-2 cells (passage no. 41–42) were grown in tissue culture flasks containing Dulbecco’s Modified Eagle Medium supplemented with 20% FBS, 1% nonessential amino acids, and 1% penicillin–streptomycin. […] The culture medium was replaced every other day. On the day of the experiment, the growth medium was discarded, and the attached cells were washed with prewarmed HBSS (pH 7.4) and preincubated with HBSS for 20 min at 37 °C. […] Aliquots (30 μL) of each sample were vortex-mixed with 90 μL of IS solution for 1 min, and then centrifugation was performed at 13,500 rpm at 4 °C for 5 min. Aliquots (5 μL) of the supernatant were injected into the LC-MS/MS for analysis.

[4] = pig, pH 7.4, with Ko134 1 μM, LLC-PK1-BCRP, Ko134 1 μM
[5] = pig, pH 7.4, LLC-PK1-BCRP, Control

| SMILES | Uptake Rate ([1]; HEK293-OCT2, cimetidine 100 μM) | Uptake Rate ([1]; HEK293-OCT2, control) | Substrate [1] | Substrate [2] | Papp A→B at 1 h, 4 µM [2, 4] | Papp B→A at 1 h, 4 µM [2, 4] | Papp A→B at 1 h, 4 µM [2, 5] | Papp B→A at 1 h, 4 µM [2, 5] | Papp A→B at 1 h, 4 µM [3] | Papp B→A at 1 h, 4 µM [3] | Fold-Change ([1]; HEK293-OCT2, cimetidine 100 μM) | Fold-Change ([1]; HEK293-OCT2, control) | efflux ratio at 1 h ([2]; pig, pH 7.4, LLC-PK1-BCRP, concentration range of 0.3–85 μM, read-out: ER) | efflux ratio at 1 h, 4 µM ([3]; pH 7.4, Caco-2, mean Papp,BA / mean Papp,AB, read-out: ER) |
| --- | --- | --- | --- | --- | --- | --- | --- | --- | --- | --- | --- | --- | --- | --- |
| Cc1cccc(C)c1CNc1cc(C(=O)N2CCC2)cn2c(C)c(C)nc12 [JP-1366, 1-azetidinyl(8-(((2,6-dimethylphenyl)methyl)amino)-2,3-dimethylimidazo(1,2-a)pyridin-6-yl)methanone] | 49.28 ± 4.50 pmol/min/10^5 Cells | 51.71 ± 1.36 pmol/min/10^5 Cells | No | No | 13.6 ± 0.54 ×10⁻⁶ cm/s | 22.6 ± 0.47 ×10⁻⁶ cm/s | 14.8 ± 1.23 ×10⁻⁶ cm/s | 20.5 ± 3.95 ×10⁻⁶ cm/s | 23 ± 5.79 ×10⁻⁶ cm/s | 10.7 ± 1.77 ×10⁻⁶ cm/s | – | – | – | – |
| Cc1cccc(CO)c1CNc1cc(C(=O)N2CCC2)cn2c(C)c(C)nc12 [M1, azetidin-1-yl(8-((2-(hydroxymethyl)-6-methyl-benzyl)amino)-2,3-dimethylimidazo[1,2-a]pyridin-6-yl)methanone] | 49.28 ± 4.50 pmol/min/10^5 Cells | 51.71 ± 1.36 pmol/min/10^5 Cells | No | No | 32 ± 2.84 ×10⁻⁶ cm/s | 47.3 ± 1.39 ×10⁻⁶ cm/s | 31.7 ± 3.39 ×10⁻⁶ cm/s | 33.8 ± 3.45 ×10⁻⁶ cm/s | 3.36 ± 0.24 ×10⁻⁶ cm/s | 20.3 ± 1.51 ×10⁻⁶ cm/s | 1.0 | 1.0 | 1.1 to 1.7 | 6 |
